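These data come from cells grown in 96-well plates and exposed to compound for 48 hours at five concentrations. GI50 marks 50% less growth.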 The source made the active and inactive calls. No stated cut-off is given here; in the data, active = GI50 up to about 1.1 µM and inactive = higher. Numbered stars: 1 amine (or outer) side, 2 acyl side, 3 side chain; on linkers, the order of the positions; unused ones are H or OH. Bridge positions count the residues as written; N and C are the ends. Square brackets hold non-standard residues; d marks the D form. Peptide text beside a SMILES is read from it. * marks the point of attachment. ξ: configuration not given here. X33 = O=C(C(CCCCNO[*:3])N[*:1])[*:2]; Fmoc = O=C(OCC1c2ccccc2-c2ccccc21)*; ξW = NC(Cc1c[nH]c2ccccc12)C(=O)O; ξP = O=C(O)C1CCCN1
Experiments:
Experiment in all cases: DTP human tumour cell line panel, 48 h
786-0 = tested on: 786-0
A498 = tested on: A498
A549 = tested on: A549
ACHN = tested on: ACHN
BT-549 = tested on: BT-549
CAKI-1 = tested on: CAKI-1
CCRF-CEM = tested on: CCRF-CEM
COLO 205 = tested on: COLO 205
DU-145 = tested on: DU-145
EKVX = tested on: EKVX
HCC 2998 = tested on: HCC 2998
HCT-116 = tested on: HCT-116
HCT-15 = tested on: HCT-15
HL-60 = tested on: HL-60
HOP-62 = tested on: HOP-62
HOP-92 = tested on: HOP-92
HT-29 = tested on: HT-29
Hs-578T = tested on: Hs-578T
IGROV-1 = tested on: IGROV-1
K562 = tested on: K562
KM12 = tested on: KM12
LOX IMVI = tested on: LOX IMVI
M14 = tested on: M14
MCF7 = tested on: MCF7
MDA-MB-231 = tested on: MDA-MB-231
MDA-MB-435 = tested on: MDA-MB-435
MOLT-4 = tested on: MOLT-4
Malme-3M = tested on: Malme-3M
NCI-H226 = tested on: NCI-H226
NCI-H23 = tested on: NCI-H23
NCI-H460 = tested on: NCI-H460
NCI-H522 = tested on: NCI-H522
NCI/ADR-RES = tested on: NCI/ADR-RES
OVCAR-3 = tested on: OVCAR-3
OVCAR-4 = tested on: OVCAR-4
OVCAR-5 = tested on: OVCAR-5
OVCAR-8 = tested on: OVCAR-8
PC-3 = tested on: PC-3
RPMI-8226 = tested on: RPMI-8226
RXF 393 = tested on: RXF 393
SF-268 = tested on: SF-268
SF-295 = tested on: SF-295
SF-539 = tested on: SF-539
SK-MEL-28 = tested on: SK-MEL-28
SK-MEL-5 = tested on: SK-MEL-5
SK-OV-3 = tested on: SK-OV-3
SN12C = tested on: SN12C
SNB-19 = tested on: SNB-19
SR = tested on: SR
SW-620 = tested on: SW-620
T47D = tested on: T47D
TK-10 = tested on: TK-10
U-251 = tested on: U-251
UACC-257 = tested on: UACC-257
UACC-62 = tested on: UACC-62
UO-31 = tested on: UO-31
SK-MEL-2 = tested on: SK-MEL-2
SNB-75 = tested on: SNB-75

In the case of `O=C1c2ccccc2-n2c1nc1ccc([N+](=O)[O-])cc1c2=O`, the GI50 (786-0) is reported as 46.5 µM (inactive), the GI50 (A498) is reported as 5.62 µM (inactive) and the GI50 (A549) is reported as > 100 µM (inactive). The GI50 (ACHN) was 58.9 µM (inactive), the GI50 (BT-549) was > 100 µM (inactive) and the GI50 (CAKI-1) was 20.2 µM (inactive). For the same compound, the GI50 (CCRF-CEM) was 34.8 µM (inactive), the GI50 (COLO 205) was > 100 µM (inactive) and the GI50 (DU-145) was > 100 µM (inactive). For the same compound, the GI50 (EKVX) was 93.1 µM (inactive), the GI50 (HCC 2998) was > 100 µM (inactive) and the GI50 (HCT-116) was 27.1 µM (inactive). For the same compound, the GI50 (HCT-15) was 29.3 µM, the GI50 (HL-60) was 13.9 µM (inactive) and the GI50 (HOP-62) was 30.6 µM (inactive). The GI50 (HOP-92) was > 100 µM (inactive), the GI50 (HT-29) was > 10 µM (inactive) and the GI50 (Hs-578T) was > 100 µM (inactive). For the same compound, the GI50 (IGROV-1) was 53.7 µM (inactive), the GI50 (K562) was 30.1 µM (inactive) and the GI50 (KM12) was 68.9 µM (inactive). The GI50 (LOX IMVI) was 22.5 µM (inactive), the GI50 (M14) was 91.8 µM (inactive) and the GI50 (MCF7) was 11.7 µM (inactive). For the same compound, the GI50 (MDA-MB-231) was 45.7 µM (inactive), the GI50 (MDA-MB-435) was > 10 µM (inactive) and the GI50 (MOLT-4) was 26.3 µM (inactive). The GI50 (Malme-3M) was 51.5 µM (inactive), the GI50 (NCI-H226) was 25.6 µM (inactive) and the GI50 (NCI-H23) was 48.2 µM (inactive). The GI50 (NCI-H460) was > 100 µM (inactive), the GI50 (NCI-H522) was 82.6 µM (inactive) and the GI50 (NCI/ADR-RES) was > 100 µM (inactive). The GI50 (OVCAR-3) was 21.1 µM (inactive), the GI50 (OVCAR-4) was > 10 µM (inactive) and the GI50 (OVCAR-5) was > 100 µM (inactive). The GI50 (OVCAR-8) was 21.3 µM (inactive), the GI50 (PC-3) was > 100 µM (inactive) and the GI50 (RPMI-8226) was 25.2 µM (inactive). The GI50 (RXF 393) was 60.4 µM (inactive), the GI50 (SF-268) was 26.4 µM (inactive) and the GI50 (SF-295) was 24.1 µM (inactive). For the same compound, the GI50 (SF-539) was > 100 µM (inactive), the GI50 (SK-MEL-28) was 55.1 µM (inactive) and the GI50 (SK-MEL-5) was 95.9 µM (inactive). For the same compound, the GI50 (SK-OV-3) was > 100 µM (inactive), the GI50 (SN12C) was 49.2 µM (inactive) and the GI50 (SNB-19) was > 100 µM (inactive). For the same compound, the GI50 (SR) was 28.8 µM (inactive), the GI50 (SW-620) was 45.1 µM (inactive) and the GI50 (T47D) was 25.9 µM (inactive). For the same compound, the GI50 (TK-10) was > 100 µM (inactive), the GI50 (U-251) was > 100 µM (inactive) and the GI50 (UACC-257) was 89.7 µM (inactive). For the same compound, the GI50 (UACC-62) was 44.2 µM (inactive) and the GI50 (UO-31) was 42.9 µM (inactive).
With `NC(=O)CNC(=O)C1CCCN1C(=O)C1CCCCNOC(=O)CC[C@@H](NC(=O)OCC2c3ccccc3-c3ccccc32)C(=O)NC(Cc2c[nH]c3ccccc23)C(=O)N1` (stereo partly drawn) (Fmoc-[dE][ξW][X33][ξP]G-NH2; ester 1-3) the GI50 (786-0) was > 100 µM (inactive), the GI50 (A549) was > 100 µM (inactive) and the GI50 (ACHN) was > 100 µM (inactive). For the same compound, the GI50 (BT-549) was > 100 µM (inactive), the GI50 (CAKI-1) was > 100 µM (inactive) and the GI50 (CCRF-CEM) was > 100 µM (inactive). The GI50 (COLO 205) was > 100 µM (inactive), the GI50 (DU-145) was > 100 µM (inactive) and the GI50 (EKVX) was > 100 µM (inactive). For the same compound, the GI50 (HCC 2998) was > 100 µM (inactive), the GI50 (HCT-116) was > 100 µM (inactive) and the GI50 (HCT-15) was > 100 µM. For the same compound, the GI50 (HL-60) was > 100 µM (inactive), the GI50 (HOP-62) was > 100 µM (inactive) and the GI50 (HOP-92) was > 100 µM (inactive). For the same compound, the GI50 (HT-29) was > 100 µM (inactive), the GI50 (Hs-578T) was > 100 µM (inactive) and the GI50 (IGROV-1) was > 100 µM (inactive). For the same compound, the GI50 (K562) was > 100 µM (inactive), the GI50 (KM12) was > 100 µM (inactive) and the GI50 (LOX IMVI) was > 100 µM (inactive). For the same compound, the GI50 (M14) was 64.4 µM (inactive), the GI50 (MCF7) was > 100 µM (inactive) and the GI50 (MDA-MB-231) was 30.6 µM (inactive). For the same compound, the GI50 (MDA-MB-435) was > 100 µM (inactive), the GI50 (MOLT-4) was > 100 µM (inactive) and the GI50 (Malme-3M) was > 100 µM (inactive). The GI50 (NCI-H226) was > 100 µM (inactive), the GI50 (NCI-H23) was > 100 µM (inactive) and the GI50 (NCI-H460) was > 100 µM (inactive). The GI50 (NCI-H522) was > 100 µM (inactive), the GI50 (NCI/ADR-RES) was > 100 µM (inactive) and the GI50 (OVCAR-3) was > 100 µM (inactive). For the same compound, the GI50 (OVCAR-4) was > 100 µM (inactive), the GI50 (OVCAR-5) was 63.5 µM (inactive) and the GI50 (OVCAR-8) was > 100 µM (inactive). The GI50 (PC-3) was > 100 µM (inactive), the GI50 (RPMI-8226) was > 100 µM (inactive) and the GI50 (RXF 393) was > 100 µM (inactive). The GI50 (SF-268) was > 100 µM (inactive), the GI50 (SF-295) was > 100 µM (inactive) and the GI50 (SF-539) was > 100 µM (inactive). For the same compound, the GI50 (SK-MEL-28) was > 100 µM (inactive), the GI50 (SK-MEL-2) was > 100 µM (inactive) and the GI50 (SK-MEL-5) was > 100 µM (inactive). The GI50 (SK-OV-3) was > 100 µM (inactive), the GI50 (SN12C) was > 100 µM (inactive) and the GI50 (SNB-19) was > 100 µM (inactive). The GI50 (SNB-75) was > 100 µM (inactive), the GI50 (SR) was > 100 µM (inactive) and the GI50 (SW-620) was > 100 µM (inactive). The GI50 (T47D) was > 100 µM (inactive), the GI50 (TK-10) was > 100 µM (inactive) and the GI50 (U-251) was > 100 µM (inactive). The GI50 (UACC-257) was > 100 µM (inactive), the GI50 (UACC-62) was > 100 µM (inactive) and the GI50 (UO-31) was 20.7 µM (inactive).

Reference: ChEMBL document CHEMBL1201862, “PubChem BioAssay data set” (2004)
